For 57 compounds, IC50 results are on record in US20250197382A1, “KIF18A INHIBITOR” (WIGEN BIOMEDICINE TECHNOLOGY (SHANGHAI) CO., LTD., priority 2022, published 2025).

The test deals with Recombinant human KIF18A (1-467His-tagged) protein (Homo sapiens (Human), UniProt Q8NI77). The test is described as follows: KIF18A enzyme assay (microtubule-stimulated ATPase activity, ADP-Glo). The class given is biochemical. The following applies: 30 nM KIF18A, ATP 75 μM, read-out: inhibitory activity against KIF18A IC50. The procedure, abridged:
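Baculovirus-expressed human KIF18A (1-467, His-tagged; 30 nM) preincubated 15 min at room temperature with compound (22-point 2-fold series) in pH 7.5 Tris buffer containing 30 μg/mL pig microtubules and 1 μM paclitaxel.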
In general terms: In ADP-Glo the light output rises with the ADP produced.

Recombinant human KIF18A (1-467His-tagged) protein, sequence (Q8NI77 1-467): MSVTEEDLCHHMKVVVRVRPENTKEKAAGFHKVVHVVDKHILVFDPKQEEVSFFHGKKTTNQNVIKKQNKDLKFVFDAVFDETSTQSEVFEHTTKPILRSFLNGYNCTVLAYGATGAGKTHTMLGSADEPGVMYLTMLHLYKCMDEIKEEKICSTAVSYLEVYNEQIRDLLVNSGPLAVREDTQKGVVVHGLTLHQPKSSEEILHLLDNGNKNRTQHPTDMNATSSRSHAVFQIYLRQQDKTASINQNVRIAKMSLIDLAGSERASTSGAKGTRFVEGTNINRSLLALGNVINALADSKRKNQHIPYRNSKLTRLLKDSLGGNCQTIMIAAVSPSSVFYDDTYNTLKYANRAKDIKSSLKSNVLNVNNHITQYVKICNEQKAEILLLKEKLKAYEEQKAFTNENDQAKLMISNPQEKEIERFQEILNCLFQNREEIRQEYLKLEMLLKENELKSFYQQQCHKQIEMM
Recombinant human KIF18A (1-467His-tagged) protein, sequence (P02550 whole entry partner): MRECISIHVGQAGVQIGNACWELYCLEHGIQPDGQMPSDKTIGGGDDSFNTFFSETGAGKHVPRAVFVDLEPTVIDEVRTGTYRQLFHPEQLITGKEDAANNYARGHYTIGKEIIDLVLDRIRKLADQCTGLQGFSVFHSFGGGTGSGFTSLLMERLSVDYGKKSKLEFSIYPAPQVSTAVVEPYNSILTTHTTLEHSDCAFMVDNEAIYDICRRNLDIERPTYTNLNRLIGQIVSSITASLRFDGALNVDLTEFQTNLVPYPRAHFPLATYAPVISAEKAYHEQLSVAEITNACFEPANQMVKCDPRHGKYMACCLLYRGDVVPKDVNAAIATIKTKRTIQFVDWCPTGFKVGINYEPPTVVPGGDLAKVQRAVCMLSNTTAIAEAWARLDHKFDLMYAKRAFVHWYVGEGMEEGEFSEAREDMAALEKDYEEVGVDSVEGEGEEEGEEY
Recombinant human KIF18A (1-467His-tagged) protein, sequence (P02554 whole entry partner): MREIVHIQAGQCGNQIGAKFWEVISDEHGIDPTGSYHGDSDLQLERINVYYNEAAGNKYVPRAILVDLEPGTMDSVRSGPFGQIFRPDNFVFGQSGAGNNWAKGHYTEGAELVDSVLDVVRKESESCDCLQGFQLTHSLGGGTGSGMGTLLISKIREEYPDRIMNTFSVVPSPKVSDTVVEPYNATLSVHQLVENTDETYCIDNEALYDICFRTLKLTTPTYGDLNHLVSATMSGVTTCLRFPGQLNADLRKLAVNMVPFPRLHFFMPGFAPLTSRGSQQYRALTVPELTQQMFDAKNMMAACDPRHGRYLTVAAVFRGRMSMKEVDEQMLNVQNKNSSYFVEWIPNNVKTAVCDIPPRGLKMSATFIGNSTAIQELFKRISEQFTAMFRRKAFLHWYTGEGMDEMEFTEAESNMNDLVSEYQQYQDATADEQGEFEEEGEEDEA

Usually IC50 stands for the point on the concentration scale where inhibition reaches its midpoint. For the compound `O=C(Nc1ccc(S(=O)(=O)NCCO)cc1N1CCC2(CC1)CC2)c1cc2ccoc2c(N2CCC(F)CC2)n1` [Compound 249], the IC50 is at most 100 nM.

As for `C[C@@H]1CN(c2cc(NC(=O)c3ccc(NS(=O)(=O)[C@@H](C)CO)cc3N3CCC4(CC3)CC4)cc3ccoc23)CCO1` [Compound 143], the IC50 is at most 100 nM. On to `O=C(Nc1cc2c(c(N3CCC(F)(F)CC3)n1)OCCC2)c1ccc(NS(=O)(=O)CCO)cc1N1CCC2(CC1)CC2` [Compound 540], for which the IC50 is at most 100 nM.

As for `Cn1ccc2cc(NC(=O)c3ccc(NS(=O)(=O)CCO)cc3N3CCC4(CC3)CC4)cc(NC(C)(C)CO)c21` [Compound 395], the IC50 is at most 100 nM. In the case of `CN1CCc2cc(C(=O)Nc3ccc(NS(=O)(=O)CCO)cc3N3CCC4(CC3)CC4)nc(N3CCOCC3)c21` [Compound 364], the IC50 is at most 100 nM. Take `O=C(Nc1ccc(S(=O)(=O)NCCO)cc1N1CCC2(CC1)CC2)c1cc2ccoc2c(N2CC3CC3C2)n1` (stereo not drawn) [Compound 250]: the IC50 was at most 100 nM. Consider `CN1CCc2cc(NC(=O)c3ccc(S(=O)(=O)NCCO)cc3N3CCC4(CC3)CC4)nc(N3CCOCC3)c21` [Compound 332], for which the IC50 is at most 100 nM. Regarding `Cn1ccc2cc(NC(=O)c3ccc(S(=O)(=O)NCCO)cc3N3CCC4(CC3)CC4)cc(N3CCC4(CC4)C3)c21` [Compound 406], the IC50 is at most 100 nM.

As for `C[C@H](CO)S(=O)(=O)Nc1ccc(NC(=O)c2cc3ccn(C)c3c(N3CCC(F)(F)CC3)n2)c(N2CCC3(CC2)CC3)c1` [Compound 494], the IC50 is at most 100 nM.

As for `CN1CCc2cc(NC(=O)c3ccc(S(=O)(=O)NCCO)cc3N3CCC4(CC3)CC4)cc(N3CCC4(CC4)C3)c21` [Compound 278], the IC50 is at most 100 nM. To `C[C@@H]1CN(c2cc(NC(=O)c3ccc(NS(=O)(=O)[C@H](C)CO)cc3N3CCC4(CC3)CC4)cc3ccoc23)CCO1` [Compound 144] belongs at most 100 nM; to `CN1CCc2cc(C(=O)Nc3ccc(NS(=O)(=O)CCO)cc3N3CCC4(CC3)CC4)nc(N3CC4CC4C3)c21` (stereo not drawn) [Compound 362], at most 100 nM; to `CN1CCc2cc(NC(=O)c3ccc(S(=O)(=O)NCCO)cc3N3CCC4(CC3)CC4)cc(N3CCC(C)(F)C3)c21` (stereo not drawn) [Compound 280], at most 100 nM.

As for `Cn1ccc2cc(C(=O)Nc3ccc(NS(=O)(=O)CCO)cc3N3CCC4(CC3)CC4)nc(N3CC4CC4C3)c21` (stereo not drawn) [Compound 490], the IC50 was at most 100 nM. To `C[C@H](CO)NS(=O)(=O)c1ccc(C(=O)Nc2cc3ccn(C)c3c(N3CCO[C@H](C)C3)n2)c(N2CCC3(CC2)CC3)c1` [Compound 480] belongs at most 100 nM; to `C[C@@H]1CN(c2nc(NC(=O)c3ccc(NS(=O)(=O)CCO)cc3N3CCC4(CC3)CC4)cc3c2N(C)CC3)CCO1` [Compound 322], at most 100 nM; to `C[C@H](CO)S(=O)(=O)Nc1ccc(C(=O)Nc2cc3c(c(N4CCC(F)(F)CC4)c2)OCC3)c(N2CCC3(CC2)CC3)c1` [Compound 14], at most 100 nM. For `C[C@H](CO)NS(=O)(=O)c1ccc(NC(=O)c2cc3c(c(N4CCC(F)(F)CC4)n2)N(C)CC3)c(N2CCC3(CC2)CC3)c1` [Compound 382], the IC50 is at most 100 nM.

For `O=C(Nc1cc2c(c(N3CC4CC4C3)n1)OCC2)c1ccc(S(=O)(=O)NCCO)cc1N1CCC2(CC1)CC2` (stereo not drawn) [Compound 90], the IC50 is at most 100 nM. Take `Cn1ccc2cc(NC(=O)c3ccc(S(=O)(=O)NCCO)cc3N3CCC4(CC3)CC4)cc(N3CC(F)(F)C3)c21` [Compound 404]: the IC50 was at most 100 nM. Turning to `C[C@H](CO)NS(=O)(=O)c1ccc(C(=O)Nc2cc(N3CCC(F)(F)CC3)c3occc3c2)c(N2CCC3(CC2)CC3)c1` [Compound 158], the IC50 is at most 100 nM. Under `C[C@@H]1CN(c2cc(NC(=O)c3ccc(S(=O)(=O)N[C@@H](C)CO)cc3N3CCC4(CC3)CC4)cc3ccoc23)CCO1` [Compound 159] stands at most 100 nM; under `C[C@@H]1CN(c2nc(C(=O)Nc3ccc(S(=O)(=O)NCCO)cc3N3CCC4(CC3)CC4)cc3ccn(C)c23)CCO1` [Compound 498], at most 100 nM; under `O=C(Nc1ccc(S(=O)(=O)NCCO)cc1N1CCC2(CC1)CC2)c1cc(OCCC(F)(F)F)c2occc2c1` [Compound 181], at most 100 nM. `O=C(Nc1cc2ccoc2c(N2CCC3(CC3)C2)n1)c1ccc(S(=O)(=O)NCCO)cc1N1CCC2(CC1)CC2` [Compound 214]: the IC50 was at most 100 nM. To `Cn1ccc2cc(NC(=O)c3ccc(NS(=O)(=O)CCO)cc3N3CCC4(CC3)CC4)cc(OC3CCC3)c21` [Compound 391] belongs at most 100 nM. Consider `Cn1ccc2cc(NC(=O)c3ccc(NS(=O)(=O)CCO)cc3N3CCC4(CC3)CC4)nc(N3CCOCC3)c21` [Compound 460], for which the IC50 was at most 100 nM. With `C[C@H]1CN(c2cc(C(=O)Nc3ccc(NS(=O)(=O)CCO)cc3N3CCC4(CC3)CC4)cc3ccn(C)c23)CCO1` [Compound 419], the IC50 was at most 100 nM. With `C[C@H](CO)NS(=O)(=O)c1ccc(C(=O)Nc2cc3c(c(N4CCC(F)(F)CC4)n2)N(C)CC3)c(N2CCC3(CC2)CC3)c1` [Compound 350], the IC50 is at most 100 nM. As for `C[C@H](CO)NS(=O)(=O)c1ccc(NC(=O)c2cc3c(c(N4CCO[C@H](C)C4)c2)N(C)CC3)c(N2CCC3(CC2)CC3)c1` [Compound 320], the IC50 is at most 100 nM. Take `Cn1ccc2cc(NC(=O)c3ccc(S(=O)(=O)NCCO)cc3N3CCC4(CC3)CC4)nc(OCCC(F)(F)F)c21` [Compound 469]: the IC50 is at most 100 nM.

As for `O=C(Nc1ccc(S(=O)(=O)NCCO)cc1N1CCC2(CC1)CC2)c1cc2ccoc2c(N2CCC3(CC3)C2)n1` [Compound 246], the IC50 was at most 100 nM. Under `CN1CCc2cc(C(=O)Nc3ccc(S(=O)(=O)NCCO)cc3N3CCC4(CC3)CC4)nc(N3CCC4(CC4)C3)c21` [Compound 374] stands at most 100 nM. Take `C[C@@H]1CN(c2cc(C(=O)Nc3ccc(NS(=O)(=O)CCO)cc3N3CCC4(CC3)CC4)cc3ccn(C)c23)CCO1` [Compound 418]: the IC50 is at most 100 nM.

Regarding `C[C@@H](CO)NS(=O)(=O)c1ccc(NC(=O)c2cc(N3CCC(F)(F)CC3)c3c(ccn3C)c2)c(N2CCC3(CC2)CC3)c1` [Compound 445], the IC50 is at most 100 nM. Regarding `CN1CCc2cc(NC(=O)c3ccc(S(=O)(=O)NCCO)cc3N3CCC4(CC3)CC4)nc(NC(C)(C)CO)c21` [Compound 347], the IC50 was at most 100 nM. Regarding `C[C@H]1CN(c2cc(NC(=O)c3ccc(NS(=O)(=O)CCO)cc3N3CCC4(CC3)CC4)cc3ccoc23)CCO1` [Compound 131], the IC50 is at most 100 nM. Turning to `C[C@@H](CO)NS(=O)(=O)c1ccc(NC(=O)c2cc3c(c(N4CCC(F)(F)CC4)c2)OCC3)c(N2CCC3(CC2)CC3)c1` [Compound 61], the IC50 was at most 100 nM.

Consider `C[C@@H]1CN(c2cc(NC(=O)c3ccc(NS(=O)(=O)[C@@H](C)CO)cc3N3CCC4(CC3)CC4)cc3ccn(C)c23)CCO1` [Compound 399], for which the IC50 was at most 100 nM.

Turning to `C[C@H](CO)NS(=O)(=O)c1ccc(C(=O)Nc2cc(N3CCC(F)(F)CC3)c3c(ccn3C)c2)c(N2CCC3(CC2)CC3)c1` [Compound 414], the IC50 is at most 100 nM. Regarding `Cn1ccc2cc(NC(=O)c3ccc(S(=O)(=O)NCCO)cc3N3CCC4(CC3)CC4)nc(N3CCC(F)(F)CC3)c21` [Compound 465], the IC50 is at most 100 nM.

Regarding `CN1CCc2cc(C(=O)Nc3ccc(S(=O)(=O)NCCO)cc3N3CCC4(CC3)CC4)nc(N3CCC(F)(F)CC3)c21` [Compound 369], the IC50 is at most 100 nM. To `C[C@@H]1CN(c2nc(NC(=O)c3ccc(S(=O)(=O)NCCO)cc3N3CCC4(CC3)CC4)cc3ccn(C)c23)CCO1` [Compound 466] belongs at most 100 nM. As for `O=C(Nc1ccc(NS(=O)(=O)CCO)cc1N1CCC2(CC1)CC2)c1cc2c(c(N3CCOCC3)c1)OCC2` [Compound 44], the IC50 is at most 100 nM.

For the compound `CC1(F)CCN(c2nc(C(=O)Nc3ccc(S(=O)(=O)NCCO)cc3N3CCC4(CC3)CC4)cc3c2OCC3)C1` (stereo not drawn) [Compound 120], the IC50 is at most 100 nM. Take `CC1(F)CCN(c2cc(C(=O)Nc3ccc(S(=O)(=O)NCCO)cc3N3CCC4(CC3)CC4)cc3c2OCC3)C1` (stereo not drawn) [Compound 56]: the IC50 is at most 100 nM.

Turning to `C[C@H](CO)NS(=O)(=O)c1ccc(NC(=O)c2cc3c(c(N4CCO[C@H](C)C4)n2)OCC3)c(N2CCC3(CC2)CC3)c1` [Compound 128], the IC50 is at most 100 nM. For the compound `Cn1ccc2cc(C(=O)Nc3ccc(S(=O)(=O)NCCO)cc3N3CCC4(CC3)CC4)cc(N3CC4CC4C3)c21` (stereo not drawn) [Compound 442], the IC50 was at most 100 nM. Take `C[C@@H]1CN(c2nc(C(=O)Nc3ccc(NS(=O)(=O)[C@H](C)CO)cc3N3CCC4(CC3)CC4)cc3c2OCC3)CCO1` [Compound 112]: the IC50 was at most 100 nM.

`C[C@H](CO)NS(=O)(=O)c1ccc(NC(=O)c2cc3c(c(N4CCC(F)(F)CC4)c2)OCC3)c(N2CCC3(CC2)CC3)c1` [Compound 62]: the IC50 is at most 100 nM. In the case of `Cn1ccc2cc(NC(=O)c3ccc(S(=O)(=O)NCCO)cc3N3CCC4(CC3)CC4)cc(N3CCC(F)CC3)c21` [Compound 409], the IC50 was at most 100 nM. Take `C[C@@H](CO)S(=O)(=O)Nc1ccc(NC(=O)c2cc(N3CCC(F)(F)CC3)c3c(ccn3C)c2)c(N2CCC3(CC2)CC3)c1` [Compound 429]: the IC50 is at most 100 nM.

In the case of `O=C(Nc1cc2ccoc2c(N2CCC(F)(F)CC2)n1)c1ccc(NS(=O)(=O)CCO)cc1N1CCC2(CC1)CC2` [Compound 193], the IC50 is at most 100 nM. As for `C[C@H](CO)NS(=O)(=O)c1ccc(NC(=O)c2cc3ccn(C)c3c(N3CCO[C@H](C)C3)n2)c(N2CCC3(CC2)CC3)c1` [Compound 512], the IC50 is at most 100 nM. To `O=C(Nc1cc(OCCC(F)(F)F)c2occc2c1)c1ccc(S(=O)(=O)NCCO)cc1N1CCC2(CC1)CC2` [Compound 149] belongs at most 100 nM.

For the compound `Cn1ccc2cc(NC(=O)c3ccc(S(=O)(=O)NCCO)cc3N3CCC4(CC3)CC4)cc(N3CC4CC4C3)c21` (stereo not drawn) [Compound 410], the IC50 is at most 100 nM.

`C[C@@H]1CN(c2cc(NC(=O)c3ccc(S(=O)(=O)NCCO)cc3N3CCC4(CC3)CC4)cc3ccoc23)CCO1` [Compound 146]: the IC50 was at most 100 nM.
